Experimental data as given in patent US6191124A, “Methanol derivatives for treatment of retroviral infections especially HIV infections” (priority 1997, dated 2001).
Like-named read-outs stand apart in the source and are kept apart here. Square brackets hold non-standard residues; d marks the D form. Peptide text beside a SMILES is read from it. * marks the point of attachment. Sta = CC(C)C[C@H](N)[C@@H](O)CC(=O)O; Isovaleryl = CC(C)CC(=O)*

Key:
[1] = test system: viral reverse transcriptase; conditions: cited from earlier work
HIV infection / AIDS = conditions: cited from earlier work
HIV-1 protease [2] = target: T1, HIV-1 protease (Human immunodeficiency virus type 1 group M subtype B, UniProt P04585); experiment: HIV protease screening assay (fluorescently labeled biotinylated substrate, streptavidin beads), percent inhibition; type: biochemical
Description: The HIV protease screening assay is based on fluorescently labeled substrate which can be resolved from nonlabeled cleavage product using special beads coated with streptavidin. The substrate is biotinylated at the amino terminal arginine and fluorescently labeled with fluorescein isothiocynate (FITC) at the carboxyl terminal lysine. This assay has been employed to detect novel, nonpeptidic inhibitors of HIV-1 protease. Substrate (20 μl of 0.2 μM), sample (10 μl of desired concentration), and enzyme (10 μl of 0.1 μM) are added to a 96 well pandex plate. The assay is run in 0.1 M sodium acetate buffer at pH 5.5 in the presence of 1.0 M sodium chloride and 0.05% NP-40 with incubated in the dark for one hour at room temperature. Strepavidin coated polystyrene beads {40 μl of 0.1% (w/v)} are added and the plate is incubated in the dark for an additional half hour. The labeled cleavage product is separated from the unreacted substrate via filtration and is read on the Idexx screen machine. The data are analyzed by appropriate computer algorithms to ascertain percent inhibition values.

HIV-1 protease [3] = target: T1, HIV-1 protease; experiment: Determination of Ki values, HIV-1 protease; type: biochemical
Description: Determination of Ki values utilizes the same materials and equipment employed for percent inhibition studies. Two-fold serial dilutions are made for a given inhibitor from 2, 3 or 4 starting concentrations with a total of 24, 36 or 48 individual inhibitor concentrations. These dilutions are performed utilizing the BioMek robotics system. The assay consists of 10 μL or 40 nM HIV-1 protease, 10 μL of the various inhibitor concentrations, and 20 μL of 200 μM substrate (40 μL total). The reaction is allowed to proceed for 90 min at room temperature, terminated with 40 μL of avidin beads and processed (supra vide). An inhibitor with a known Ki is run in parallel to verify the validity of the assay. The data is processed utilizing a computer program employing a nonlinear least square analysis of the data to generate the Ki values.

HIV-1IIIB = HIV-1IIIB replication in human T-cell line H9 (p24 core antigen ELISA); type: cell-based; conditions: human T-cell lines, e.g., H9, infected with HIV-1IIIB
Description: Several compounds of the present invention, such as 2,3-dimethyl-[…]-(2-phenylethyl)imidazo[2,1-b]thiazole-5-methanol were tested in known human cell lines, such as human T-cell lines, e.g., H9, which were infected with HIV-1IIIB. […] The H9 cell line was originally derived from the peripheral blood of a human lymphoma patient and extensively cloned so that the cells were highly susceptible to HIV infection. Virus-free H9 cells were maintained in a humidified 5% CO2 atmosphere at 37° C. in RPMI Complete (RC) medium, which was composed of RPMI 1640 supplemented with 10% heat-inactivated fetal calf serum (FCS), 10 mM Hepes, 2 mM L-glutamine, 100 μg/ml streptomycin, and 100 U/ml penicillin. H9 cultures were split 1:5 twice weekly for a maximum 12-15 times. […]
HIVIIIb 's ability to replicate efficiently in human T lymphoblastoid cell lines made this strain of HIV the logical choice for protease inhibitor screen. […] The titer, measured at the 50% Tissue Culture Infectious Dose (TCID50), was determined by the Reed-Muench method of statistical analysis to determine the 50% infectivity endpoint.
The standard acute infectivity assay for the evaluation of the inhibitors of HIV protease was performed in 96 well microplates. […] The amount of HIV p24 core antigen was quantified with an ELISA procedure by following the manufacturers directions (Coulter Diagnostics). […]

HIV-I protease = conditions: cited from earlier work
HIV = conditions: cited from earlier work
[4] = cited from earlier work
hepatic glycolysis = conditions: cited from earlier work
[5] = read-out: % Protease Inhibition
[6] = read-out: Protease Inhibition, % Inhibition
[7] = Table 4, read-out: Protease Inhibition, Ki
[8] = 1.1 μM (Table 6), read-out: PROTEASE INHIBITION
[9] = 3.3 μM (Table 6), read-out: PROTEASE INHIBITION

Cc1cn([C@H]2C[C@H](N=[N+]=[N-])[C@@H](CO)O2)c(=O)[nH]c1=O [AZT, 3'-azido-3'-deoxy-thymidine]
inhibition of viral reverse transcriptase [1]: known inhibitor of viral reverse transcriptase | decrease of mortality and frequency of opportunistic infections (HIV infection / AIDS): shown to decrease the morality and frequency of opportunistic infections associated with AIDS

Cc1sc2ncc(C(O)CCCc3ccccc3)n2c1C (stereo not drawn) [Example 3, 2,3-Dimethyl-α-(3-phenylpropyl)imidazo-[2,1-b]thiazole-5-methanol]
% Protease Inhibition (HIV-1 protease [2]; 1.1-1.3 μM (Table 1)): 16% | % Protease Inhibition (HIV-1 protease [2]; 3.3-3.7 μM (Table 1)): 72% | inhibition at 10 µM (HIV-1 protease [2]; [5]): 115% | Ki (HIV-1 protease [3]; Table 1, read-out: Ki): 246 nM

Cc1sc2ncc(C(O)CCc3ccccc3)n2c1C (stereo not drawn) [Example 11, 2,3-Dimethyl-α-(2-phenylethyl)imidazo[2,1-b]thiazole-5-methanol]
inhibition of retroviral replication (HIV-1IIIB): found to inhibit retroviral replication | % Protease Inhibition (HIV-1 protease [2]; 1.1-1.3 μM (Table 1)): 96% | % Protease Inhibition (HIV-1 protease [2]; 3.3-3.7 μM (Table 1)): 109% | inhibition at 10 µM (HIV-1 protease [2]; [5]): 112% | Ki (HIV-1 protease [3]; Table 1, read-out: Ki): 120 nM

Cc1sc2ncc(C(O)/C=C/c3ccccc3)n2c1C (stereo not drawn) [Example 12, 2,3-Dimethyl-α-(2-phenylethenyl)imidazo[2,1-b]thiazole-5-methanol]
% Protease Inhibition (HIV-1 protease [2]; 1.1-1.3 μM (Table 1)): 63% | % Protease Inhibition (HIV-1 protease [2]; 3.3-3.7 μM (Table 1)): 103% | inhibition at 10 µM (HIV-1 protease [2]; [5]): 110% | Ki (HIV-1 protease [3]; Table 1, read-out: Ki): 567 ± 282 nM

OC(CCc1ccccc1)c1cnc2sc3c(n12)CCCC3 (stereo not drawn) [Example 14, 5,6,7,8-Tetrahydro-α-(2-phenylethyl)imidazo[2,1-b]benzothiazole-3-methanol]
inhibition at 1.1 µM (HIV-1 protease [2]; [6]): 73% | Ki (HIV-1 protease [3]; [7]): 68 ± 14 nM

OC(CCc1ccccc1)c1cnc2sc3c(n12)CCCCC3 (stereo not drawn) [Example 15, 6,7,8,9-Tetrahydro-α-(2-phenylethyl)-5H-cyclohept[d]imidazo[2,1-b]thiazole-3-methanol]
inhibition at 1.1 µM (HIV-1 protease [2]; [6]): 57% | Ki (HIV-1 protease [3]; [7]): 57 ± 14 nM

OC(CCCCc1ccccc1)c1cnc2sc3c(n12)CCCCC3 (stereo not drawn) [Example 16, 6,7,8,9-Tetrahydro-α-(4-phenylbutyl)-5-H-cyclohept[d]imidazo[2,1-b]thiazole-3-methanol]
inhibition at 1.1 µM (HIV-1 protease [2]; [6]): 54% | Ki (HIV-1 protease [3]; [7]): 227 ± 42 nM

OC(CCc1ccccc1)c1cnc2sc3c(n12)CCCCCC3 (stereo not drawn) [Example 17, 5,6,7,8,9,10-Hexahydro-α-(2-phenylethyl)cyclooct[d]imidazo-[2,1-b]thiazole-3-methanol]
inhibition at 1.1 µM (HIV-1 protease [2]; [6]): 62% | Ki (HIV-1 protease [3]; [7]): 72 ± 26 nM

OC(CCc1ccc2ccccc2c1)c1cnc2sc3c(n12)CCCCC3 (stereo not drawn) [Example 37, α-[2-(2-Naphthalenyl)ethyl]-6,7,8,9-tetrahydro-5H-cyclohept[d]imidazo[2,1-b]thiazol-3-methanol]
inhibition at 1.1 µM (HIV-1 protease [2]; [8]): 51% | inhibition at 3.3 µM (HIV-1 protease [2]; [9]): 80%

OC(/C=C/c1ccco1)c1cnc2sc3c(n12)CCCCC3 (stereo not drawn) [Example 38, α-[2-(2-Furanyl)ethenyl]-6,7,8,9-tetrahydro-5H-cyclohept[d]imidazo[2,1-b]thiazol-3-methanol]
inhibition at 1.1 µM (HIV-1 protease [2]; 1.1 μM (Table 7), read-out: PROTEASE INHIBITION): 12% | inhibition at 3.3 µM (HIV-1 protease [2]; 3.3 μM (Table 7), read-out: PROTEASE INHIBITION): 60% | inhibition at 10 µM (HIV-1 protease [2]; 10 μM (Table 7), read-out: PROTEASE INHIBITION): 98%

OC(CCc1ccco1)c1cnc2sc3c(n12)CCCCC3 (stereo not drawn) [Example 39, α-[2-(2-Furanyl)ethyl]-6,7,8,9-tetrahydro-5H-cyclohept[d]imidazo[2,1-b]thiazol-3-methanol]
inhibition at 1.1 µM (HIV-1 protease [2]; [8]): 54% | inhibition at 3.3 µM (HIV-1 protease [2]; [9]): 85%

Cc1sc2ncc(C(O)/C=C/c3ccco3)n2c1C (stereo not drawn) [Example 41, α-[2-(2-Furanyl)ethenyl]2,3-dimethylimidazo[2,1-b]thiazol-3-methanol]
inhibition at 3.3 µM (HIV-1 protease [2]; 3.3 μM (Table 9), read-out: PROTEASE INHIBITION): 19% | inhibition at 10 µM (HIV-1 protease [2]; 10 μM (Table 9), read-out: PROTEASE INHIBITION): 81%

Cc1sc2ncc(C(O)CCc3ccco3)n2c1C (centres unmarked) [Example 42]
inhibition at 1.1 µM (HIV-1 protease [2]; 1.1 μM (Table 8), read-out: PROTEASE INHIBITION): < 10% | inhibition at 3.3 µM (HIV-1 protease [2]; 3.3 μM (Table 8), read-out: PROTEASE INHIBITION): 46% | inhibition at 10 µM (HIV-1 protease [2]; 10 μM (Table 8), read-out: PROTEASE INHIBITION): 92%

CC(C)CC(=O)N[C@H](C(=O)N[C@H](C(=O)N[C@@H](CC(C)C)[C@@H](O)CC(=O)N[C@@H](C)C(=O)N[C@@H](CC(C)C)[C@@H](O)CC(=O)O)C(C)C)C(C)C [Pepstatin A] (Isovaleryl-VV[Sta]A[Sta]-OH)
inhibition of HIV-I protease (HIV-I protease): inhibitor of HIV-I protease

Nc1ccn([C@H]2CC[C@@H](CO)O2)c(=O)n1 [ddC]
activity against HIV in vitro (HIV): potent activity against HIV in vitro | limiting toxicity ([4]; humans, clinical): peripheral neuropathy which is reversible at low doses

O=c1[nH]cnc2c1ncn2[C@H]1CC[C@@H](CO)O1 [ddI]
activity against HIV in vitro (HIV): potent activity against HIV in vitro | stimulation of hepatic glycolysis (hepatic glycolysis): shown to stimulate hepatic glycolysis leading to irreversible liver damage | limiting toxicity ([4]; in vivo): peripheral neuropathy and pancreatitis
